According to ChEMBL document CHEMBL3627656 (Bioorg Med Chem, 2015):

How the values were obtained:
[1] = Apparent permeability across basolateral to apical side in human Caco2 cells at 10 uM after 2 hrs […] by LC-MS method; type: ADME, cell-based; conditions: Caco-2
[2] = Apparent permeability across basolateral to apical side in human Caco2 cells at 1 uM after 2 hrs by LC-MS method; type: ADME, cell-based; conditions: Caco-2
[3] = Apparent permeability across apical to basolateral side in human Caco2 cells at 1 uM after 1 hr by LC-MS method; type: ADME, cell-based; conditions: Caco-2
[4] = biological target: T1, Prostaglandin G/H synthase 1 (Ovis aries, UniProt P05979); experiment: Inhibition of ovine COX-1 using arachidonic acid after 5 mins by colorimetric method
T1 sequence (P05979 whole entry): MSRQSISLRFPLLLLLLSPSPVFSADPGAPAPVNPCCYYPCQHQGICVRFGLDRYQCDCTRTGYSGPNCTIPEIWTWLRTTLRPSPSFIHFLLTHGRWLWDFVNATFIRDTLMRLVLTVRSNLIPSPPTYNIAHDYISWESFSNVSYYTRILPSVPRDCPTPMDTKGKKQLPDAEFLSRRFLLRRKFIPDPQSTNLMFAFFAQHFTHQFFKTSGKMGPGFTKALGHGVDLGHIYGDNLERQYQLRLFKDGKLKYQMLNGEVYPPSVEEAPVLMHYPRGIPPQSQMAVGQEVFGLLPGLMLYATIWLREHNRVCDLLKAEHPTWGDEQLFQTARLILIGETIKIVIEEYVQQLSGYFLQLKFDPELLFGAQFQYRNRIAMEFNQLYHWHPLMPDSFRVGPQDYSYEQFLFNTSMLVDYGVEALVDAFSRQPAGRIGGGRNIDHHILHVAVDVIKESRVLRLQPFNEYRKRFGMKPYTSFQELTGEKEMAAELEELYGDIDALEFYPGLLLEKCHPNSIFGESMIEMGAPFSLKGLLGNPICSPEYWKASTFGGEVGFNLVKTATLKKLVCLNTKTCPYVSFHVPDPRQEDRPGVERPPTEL

[5] = Apparent permeability across apical to basolateral side in human Caco2 cells at 10 uM after 1 hr by LC-MS method; type: ADME, cell-based; conditions: Caco-2
[6] = Lipophilicity, LogP of the compound at pH 7.4 by reverse-phase HPLC; type: physicochemical; conditions: buffer

Papp B→A at 2 h, 10 µM [1]	Papp B→A at 2 h, 1 µM [2]	Papp A→B at 1 h, 1 µM [3]	IC50 [4]	Papp A→B at 1 h, 10 µM [5]	logP [6]	SMILES
25.4 ×10⁻⁶ cm/s	8.5 ×10⁻⁶ cm/s	11.2 ×10⁻⁶ cm/s	> 100 µM	38.1 ×10⁻⁶ cm/s	1.26	COc1ccccc1Oc1cc([N+](=O)[O-])ccc1NS(C)(=O)=O
51.9 ×10⁻⁶ cm/s	40.4 ×10⁻⁶ cm/s	42.7 ×10⁻⁶ cm/s	> 100 µM	52.3 ×10⁻⁶ cm/s	1.65	COc1cccc(Oc2cc([N+](=O)[O-])ccc2NS(C)(=O)=O)c1
3.1 ×10⁻⁶ cm/s	6.8 ×10⁻⁶ cm/s	8.3 ×10⁻⁶ cm/s	> 100 µM	18.2 ×10⁻⁶ cm/s	1.41	COc1ccc(Oc2cc([N+](=O)[O-])ccc2NS(C)(=O)=O)cc1
–	–	–	> 100 µM	–	–	CS(=O)(=O)Nc1ccc([N+](=O)[O-])cc1Oc1ccccc1 [NIMESULIDE]
